Converted amounts (≈) assume the structure as drawn. Read-outs that look alike come from different tables or passages of the source.

This note sets out measurements from patent US9359298B2, “Cajanine structure analogous compound, preparation method and use” (INSTITUTE OF MEDICINAL BIOTECHNOLOGY, CHINESE ACADEMY OF …, priority 2011, dated 2016).

Common to all, as to type: cell-based
Assay [1] deals with Influenza A virus (hanfang359/95). The experiment in a line: Determination of anti-influenza virus activity (CPE in MDCK cells). The settings on record: for IC50: Influenza A virus, MDCK, 36 h; for anti-influenza virus activities compared with the lead compound cajanine: statement in words.
The next assay concerns Coxsackie virus B6. The experiment in a line: Coxsackie virus activity assay (CPE in Vero cells). The settings on record: for IC50: Vero, read-out: COX-B6 IC50, Vero cells, about 100TCID50, CPE, Reed-Muench.
The next assay has as its system HCV. The assay can be described thus: Anti-hepatitis C virus (HCV) activity assay (HCV RNA in Huh7.5 cells). As to conditions: for EC50: Hepatitis C virus, Huh7.5, 72 h, read-out: HCV EC50; for anti-HCV viral activity: statement in words. On the procedure: Inoculate Huh7.5 cells into 96-well plates to a density of 3×10^4 cells/cm^2, culture for 24h, infect the cells with 45 IU/cell HCV supernatant, meanwhile, add drug solutions or solvent control for treatment.

The test system of the next assay is HIV-1 III B virus. The experiment in a line: Anti-HIV activity assay (P24 antigen in MT-4 cells). The settings on record: for IC50: Human immunodeficiency virus 1, MT4, 96 h, read-out: HIV IC50; for anti-HIV viral activity: statement in words.
Assay [2] has as its system PC12 cells. The experiment in a line: Neuroprotective activity assay, serum-deprived injury to PC12 cells (MTT). The settings on record: for viability at 10 µM: Rattus norvegicus, PC-12, 48 h, read-out: serum-deprived (surviving PC12 cells, MTT 570 nm). The procedure:
(§1) Discard the original culture media from confluent monolayers of PC12 cells (simulated neuronal cells), add DMEM complete medium with 5% FBS, 5% horse serum gently beat upon the cells with a pipette to completely disperse them, inoculate 100 μl cell suspension at a density of […] per well to 96 hole plates treated with poly-lysine (0.1 mg/ml) in advance, culture for 24h. Divide the experimenting cells into control group, model group and dosing groups. Add complete medium to the control group. Model groups includes rotenone group and serum-deprived group, add rotenone to the corresponding modules with a final concentration of 4 μM rotenone to take effect on the cells for 48 h, add serum-deprived groups with serum-free DMEM medium to take effect on the cells for 48 h. Dosing groups also includes two groups, one using rotenone module as model, another using serum-deprived module as model, and both add in 10 μM test compounds during modeling. 48h later, add 10 μl 5 mg/ml MTT, subsequently discard the supernatant 4h later and add in 150 μl DMSO, measure 570 nm absorbance to represent the numbers of surviving cells.

Assay [3] deals with PC12 cells. The assay can be described thus: Neuroprotective activity assay, rotenone injury to PC12 cells (MTT). As to conditions: for viability at 10 µM: Rattus norvegicus, PC-12, 48 h, read-out: rotenone (surviving PC12 cells, MTT 570 nm). On the procedure: as §1
The mark [4] stands for this setting: Huh7.5 cells, 72 h, HCV RNA by RT-PCR, Reed-Muench.
[5] abbreviates: MT-4 cells, HIV-1 III B 100TCID50, 96 h, P24 antigen.
Where [6] appears, read: 10 μM test compound, 48 h, Control 100.0 ± 9.2, Model 69.3 ± 4.1.
The mark [7] stands for this setting: 10 μM test compound, 4 μM rotenone, 48 h, Control 100.0 ± 8.9, Model 73.2 ± 7.8.

For orientation: IC50 means the point on the concentration scale where inhibition reaches its midpoint. One may read the EC50 as the concentration that produces a half-maximal response. Consider `COc1cc(/C=C/c2cccs2)c(C(=O)O)c(O)c1CC=C(C)C` [Compound 1j, 2-hydroxy-3-isopentenyl-4-methoxy-6-[(E)-2-(thien-2-yl)ethenyl]benzoic acid], for which the IC50 in assay [1] is above 0.27 µg/mL; with Coxsackie virus B6 it was 2.13 µg/mL (≈ 6.18 µM); with HIV-1 III B virus (setting [5]) it was 1.02 µg/mL (≈ 2.96 µM). Also, the EC50 in the assay with HCV (setting [4]) came out at 0.77 µg/mL (≈ 2.24 µM). In addition, the “anti-HCV viral activity” value in the assay with HCV is given as “stronger anti-HIV, HCV viral activities”. Also, the “anti-HIV viral activity” value in the assay with HIV-1 III B virus was “stronger anti-HIV, HCV viral activities”. The results for the viability at 10 µM in the assay on PC12 cells [2] (setting [6]) and in the assay with PC12 cells [3] (setting [7]) were 27.7 ± 6.3% and 59.8 ± 7.7%, respectively.
As to `COc1cc(/C=C/Cc2ccccc2)c(C(=O)O)c(O)c1CC=C(C)C` [Compound 1k, 2-hydroxy-3-isopentenyl-4-methoxy-6-[(E)-3′-phenyl-propen-1′-yl]benzoic acid], the results for the IC50 (in assay [1]; in the assay on Coxsackie virus B6; with HIV-1 III B virus (setting [5])) were 2.05 µg/mL (≈ 5.82 µM), above 2.06 µg/mL and 2.4 µg/mL (≈ 6.81 µM), respectively. In assay [1], the “anti-influenza virus activities compared with the lead compound cajanine” value was “significantly stronger than the lead compound cajanine”. Besides, the EC50 in the assay with HCV (setting [4]) amounted to 1.03 µg/mL (≈ 2.92 µM). Besides, the viability at 10 µM in the assay on PC12 cells [2] (setting [6]) was 19.2 ± 0.5%; with PC12 cells [3] (setting [7]) it was 60.4 ± 3.2%.
Turning to `COc1cc(/C=C/CCc2ccccc2)c(C(=O)O)c(O)c1CC=C(C)C` [Compound 1l, 2-hydroxy-3-isopentenyl-4-methoxy-6-[(E)-4′-phenylbuten-1′-yl]benzoic acid], the IC50 was 0.36 µg/mL (≈ 0.982 µM) in assay [1], above 2.06 µg/mL in the assay with Coxsackie virus B6 and 1.64 µg/mL (≈ 4.48 µM) in the assay on HIV-1 III B virus (setting [5]). Also, in assay [1], the “anti-influenza virus activities compared with the lead compound cajanine” value is “significantly stronger than the lead compound cajanine”. The EC50 in the assay with HCV (setting [4]) is 0.65 µg/mL (≈ 1.77 µM). Also, in the assay on HCV, the “anti-HCV viral activity” value is “stronger anti-HIV, HCV viral activities”. Besides, the “anti-HIV viral activity” value in the assay with HIV-1 III B virus is “stronger anti-HIV, HCV viral activities”. The values for the viability at 10 µM with PC12 cells [2] (setting [6]) and in the assay with PC12 cells [3] (setting [7]) were 27.2 ± 7.2% and 58.4 ± 1.4%, respectively.
For the compound `COc1cc(/C=C/C=C/c2ccccc2)c(C(=O)O)c(O)c1CC=C(C)C` [Compound 1m, 2-hydroxy-3-isopentenyl-4-methoxy-6-[(1′E,3′E)-phenylbutadien-1′,3′-yl]benzoic acid], the figures for the IC50 (in assay [1]; in the assay on Coxsackie virus B6; with HIV-1 III B virus (setting [5])) were 6.17 µg/mL (≈ 16.9 µM), above 2.06 µg/mL and 1.07 µg/mL (≈ 2.94 µM), respectively. In the assay on HCV, the EC50 came out at 6.17 µg/mL (≈ 16.9 µM). The results for the viability at 10 µM in the assay with PC12 cells [2] (setting [6]) and in the assay with PC12 cells [3] (setting [7]) were 21 ± 2.2% and 74.4 ± 4.4%, respectively.
With `COc1cc(C=C2CCC(C)CC2)c(C(=O)O)c(O)c1CC=C(C)C` (stereo not drawn) [Compound 1n, 2-hydroxy-3-isopentenyl-4-methoxy-6-(4′-methyl-cyclohexylenemethyl)benzoic acid], in assay [1], the “Influenza A virus (hanfang359/95) IC50” value was above 6.17 µg/mL. For the same compound, in the assay with Coxsackie virus B6, the “COX-B6 IC50” value was above 0.69 µg/mL. In addition, in the assay with HCV (setting [4]), the “HCV EC50” value turned out to be 2.61 µg/mL. For the same compound, in the assay with HIV-1 III B virus (setting [5]), the “HIV IC50” value was found to be 0.99 µg/mL. Also, the “serum-deprived (surviving PC12 cells, MTT 570 nm)” value in the assay with PC12 cells [2] (setting [6]) is 17.3 ± 2.4. The “rotenone (surviving PC12 cells, MTT 570 nm)” value in the assay with PC12 cells [3] (setting [7]) amounted to 62.9 ± 2.7.
For `COc1cc(/C=C/c2ccccc2)c(C(=O)O)c(O)c1C/C=C(\C)CCC=C(C)C` [Compound 1o], the IC50 in assay [1] is above 2.47 µg/mL; in the assay with Coxsackie virus B6 it was 1.36 µg/mL (≈ 3.35 µM); with HIV-1 III B virus (setting [5]) it was 1.76 µg/mL (≈ 4.33 µM). Moreover, in the assay with HCV (setting [4]), the EC50 came to 1.47 µg/mL (≈ 3.62 µM). Further, the viability at 10 µM in the assay on PC12 cells [2] (setting [6]) was 28.1 ± 11.9%; in the assay with PC12 cells [3] (setting [7]), 61 ± 2.8%.
For the compound `COc1cc(/C=C/C2CCCCC2)c(C(=O)O)c(O)c1CC=C(C)C` [Compound 1p, 2-hydroxy-3-isopentenyl-4-methoxy-6-[(E)-2-cyclohexyl-vinyl]benzoic acid], the IC50 in assay [1] is 8.62 µg/mL (≈ 25 µM); in the assay with Coxsackie virus B6, above 2.06 µg/mL; in the assay with HIV-1 III B virus (setting [5]), 1.06 µg/mL (≈ 3.08 µM). Also, the EC50 in the assay with HCV was found to be 8.62 µg/mL (≈ 25 µM). The results for the viability at 10 µM in the assay with PC12 cells [2] (setting [6]) and in the assay on PC12 cells [3] (setting [7]) were 81.2 ± 3.2% and 82 ± 2.3%, respectively. Also, the “protective effect on serum-deprived injury to PC12 cells” value in the assay with PC12 cells [2] (statement in words) is on record as “the strongest activities”. The “protective effect on rotenone injury to PC12 cells” value in the assay on PC12 cells [3] (statement in words) is reported as “the strongest activities”.
Turning to `COc1cc(/C=C/c2ccc(O)cc2)c(C(=O)O)c(O)c1CC=C(C)C` [Compound 1q], the IC50 is 2.35 µg/mL (≈ 6.63 µM) in assay [1], 0.86 µg/mL (≈ 2.43 µM) in the assay on Coxsackie virus B6 and 1.86 µg/mL (≈ 5.25 µM) with HIV-1 III B virus (setting [5]). Moreover, the “anti-influenza virus activities compared with the lead compound cajanine” value in assay [1] is “significantly stronger than the lead compound cajanine”. In addition, in the assay on HCV (setting [4]), the EC50 came to 2.3 µg/mL (≈ 6.49 µM). The viability at 10 µM with PC12 cells [2] (setting [6]) worked out at 79.6 ± 2.8%; in the assay with PC12 cells [3] (setting [7]), 78.9 ± 5.3%.
